Experimental data as given in patent US20100160335A1, “PYRIDAZINONE DERIVATIVE AND PDE INHIBITOR CONTAINING THE SAME AS ACTIVE INGREDIENT” (KYORIN PHARMACEUTICAL CO., LTD., priority 2007, published 2010).

Experiments:
[1] = target: T1, PDE3A catalytic domain (PDE3Acat) (Homo sapiens, UniProt Q14432); test: Phosphodiesterase inhibitory activity, PDE3 ([3H]cAMP, recombinant enzyme); assay type: biochemical; conditions: 30° C., 20 minutes, read-out: IC50(μmol/L) PDE3
T1 construct: made in house; host or cells: Sf9 insect cells (baculovirus, Bac-to-Bac / Gateway)

PDE4Bcat = target: T2, PDE4Bcat (Homo sapiens, UniProt Q07343); test: Phosphodiesterase inhibitory activity, PDE4 ([3H]cAMP, recombinant enzyme); assay type: biochemical; conditions: 30° C., 20 minutes, read-out: IC50(μmol/L) PDE4
T2 construct: made in house; host or cells: Sf9 insect cells (baculovirus, Bac-to-Bac / Gateway)

[2] = system: histamine-induced bronchoconstriction in guinea pigs; test: Histamine-induced bronchoconstriction reaction in guinea pigs; assay type: in vivo; conditions: Cavia porcellus, iv, 0.5 min, guinea pig, measured 30 seconds after administration, read-out: Inhibition rate (histamine-induced bronchoconstriction)
[3] = system: LPS acute inflammation model in rats; test: LPS acute inflammation model in rats (total leukocytes in BALF); assay type: in vivo; conditions: Rattus norvegicus, Leukocyte, po, 3 h, 1 mg/kg orally after fasting overnight (values in [ ]), one hour before LPS inhalation, BALF 3 hours after LPS, read-out: Inhibition rate (total number of leukocytes in BALF)
Experimental: 1 mg/kg of the compound was orally administered to rat one hour before inhalation of a lipopolysaccharide from E. coli serotype 055:B5 (LPS), and the rat was made to inhale 50 mL of the LPS solution nebulized using a nebulizer for 30 minutes. Then, 3 hours after the LPS inhalation, the rat was euthanized with 20% urethane (5 ml/rat, i.p.). 5 ml of physiological saline for bronchoalveolar lavage was injected into the bronchial tubes and alveoli through the airway, and the bronchial tubes and alveoli were washed three times using a 5 mL syringe. This operation was repeated twice, and the solution was collected as bronchoalveolar lavage fluid (BALF). The collected BALF was centrifuged at 1200 rpm and 4° C. for 10 minutes (Hirtachi; himac CR 5 DL). The pellet was re-suspended in 10 mL of a 0.1% bovine serum albumin-physiological saline, and an equivalent amount of Turk's solution was added thereto to stain leukocytes. The total number of leukocytes was counted under a microscope to calculate the inhibition rate. Further, the indications were as follows: inhibition rate≧90% (++) and 90%>inhibition rate≧50% (+). [ ] means the results of the drug administration after fasting overnight.

T1 sequence (Q14432 674-1093 limits assumed): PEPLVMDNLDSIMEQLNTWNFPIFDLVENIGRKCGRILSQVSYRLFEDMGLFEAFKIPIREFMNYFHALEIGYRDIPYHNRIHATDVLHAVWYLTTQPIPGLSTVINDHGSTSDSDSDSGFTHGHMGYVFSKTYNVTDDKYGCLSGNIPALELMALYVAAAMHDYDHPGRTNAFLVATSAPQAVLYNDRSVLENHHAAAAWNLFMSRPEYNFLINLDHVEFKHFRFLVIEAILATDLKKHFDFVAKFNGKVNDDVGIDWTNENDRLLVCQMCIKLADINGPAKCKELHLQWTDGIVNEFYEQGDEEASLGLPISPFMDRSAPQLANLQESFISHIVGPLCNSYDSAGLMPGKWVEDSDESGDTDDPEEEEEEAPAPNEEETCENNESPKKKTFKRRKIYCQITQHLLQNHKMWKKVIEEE
T2 sequence (Q07343 330-659 limits assumed): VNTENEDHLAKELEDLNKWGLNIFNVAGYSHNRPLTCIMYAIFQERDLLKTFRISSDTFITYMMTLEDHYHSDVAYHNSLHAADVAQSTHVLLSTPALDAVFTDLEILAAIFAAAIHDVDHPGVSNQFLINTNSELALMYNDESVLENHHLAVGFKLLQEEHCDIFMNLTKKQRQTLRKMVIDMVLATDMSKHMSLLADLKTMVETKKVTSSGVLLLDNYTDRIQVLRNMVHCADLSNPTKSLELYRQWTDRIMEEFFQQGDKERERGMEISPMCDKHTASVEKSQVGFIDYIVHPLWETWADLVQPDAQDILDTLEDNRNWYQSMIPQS

| IC50 [1] [µmol/L] | IC50 (PDE4Bcat) [µmol/L] | SMILES | inhibition in vivo at 0.1 mg/kg ([2]; compound 0.1 mg/kg, i.v. (values in [ ])) [%] | inhibition in vivo at 1 mg/kg [3] [%] | inhibition in vivo at 0.3 mg/kg ([2]; compound 0.3 mg/kg, i.v.) [%] |
| --- | --- | --- | --- | --- | --- |
| < 0.1 | 0.1 to 1 | COc1ccc(-c2ccc(=O)n(CCCCOc3ccc(C4=NNC(=O)CC4C)c(F)c3F)n2)c2cccnc12 (centres unmarked) [Example 319, 2-[4-[2,3-Difluoro-4-(4-methyl-6-oxo-1,4,5,6-tetrahydropyridazin-3-yl)phenoxy]butyl]-6-(8-methoxyquinolin-5-yl)-2H-pyridazin-3-one] | ≥ 90 | 50 to 90 | – |
| < 0.1 | < 0.1 | COc1ccc(-c2ccc(=O)n(CCCCOc3ccc(C4=NNC(=O)CC4)c(F)c3F)n2)c2cccnc12 [Example 320, 2-[4-[2,3-Difluoro-4-(6-oxo-1,4,5,6-tetrahydropyridazin-3-yl)phenoxy]butyl]-6-(8-methoxyquinolin-5-yl)-2H-pyridazin-3-one] | – | 50 to 90 | ≥ 90 |
